Test results reported in patent US10370388B2, “Heterocyclic compounds and methods of their use” (NOVARTIS AG, priority 2012, dated 2019).

How the values were obtained:
AT2 receptor = AT2 receptor (Homo sapiens (Human), UniProt P50052); assay: AT2 receptor binding assay ([125I]-CGP42112A, HEK293/AT2 receptor cell membranes); conditions: displacement of [125I]-CGP42112A
Method: Trypsin-EDTA (for preparation of 100 mL) • Trypsin 0.25 g • 2% EDTA 2 mL • PBS 98 mL • Dissolve trypsin in 2% EDTA and PBS completely; sterilize the solution by passing through a […] membrane filter; store at 4° C. • 2. […] Add slowly with stirring. • Dilute to 1 liter with ddH2O. • Sterilize the medium immediately by filtration. • Store at 4° C. • 3. TE buffer • 20 mM Tris-HCl, pH 7.4, • 5 mM EDTA • 4. Binding Assay Buffer • 50 mM Hepes, pH 7.4 • 5 mM MgCl2 • 1 mM CaCl2 • 0.2% BSA • 5.
Cells were ready for transfection after overnight incubation (the confluence reaches around 80%). • 75 μL Lipofectamine™2000 diluted in 6.25 mL OptiMEM I Reduced Serum Medium, was mixed gently, and incubated at room temperature for 5 minutes. 50 μg expression plasmid DNA diluted in 6.25 mL OptiMEM I Reduced Serum Medium without serum was mixed gently. • After the 5 minute incubation, the diluted DNA was combined with the diluted Lipofectamine™2000 (total volume is 12.5 mL).
Solutions of all compounds were prepared by microplate liquid handling equipment such as Janus or Precision 2000. Compounds, dissolved in DMSO were stored in a Freezer. Compounds were prepared from 30 mM in 100% DMSO.
All the compounds were diluted using Precision 2000 microplate liquid handling equipment. The top concentration of compound was 5 mM with 100% DMSO.
Step 3: Assay Plate Preparation (96 Well Plate)

NG108-15 neurite cells = assay: AT2 receptor neurite outgrowth assay; format: cell-based; conditions: NG108-15 cells, in the presence of angiotensin II 0.1 μM, compound 0.003-10 μM
Method: Biological Example 3: AT2 Receptor Neurite Outgrowth Assay
The general methodology of Wallinder (2008) and references cited therein was used to assess the effect of the compounds of the present invention on neurite outgrowth. The assay was adapted for high content screening.
EMA1087 is a known AT2 receptor agonist described as “compound 21” in Wan et al. 2004. PD-123,319 is a known, commercially available AT2 receptor antagonist. The results were analyzed by immunofluorescence quantitative analysis. Neurite outgrowth was quantified with neurite average length using Cellomics software. Results are expressed as the mean±SEM, each conducted in triplicate. Statistical significance, compared with Ang II control: *p<0.05, **p<0.01, and ***p<0.001. NS: no significant difference. ND: not determined. FIGS. 1 to 5 show neurite outgrowth was inhibited by the AT2 receptor antagonists, PD-126,055 and compounds 6, 15, 21 and 28.

AT1 receptor = AT1 receptor (Homo sapiens (Human), UniProt P30556); assay: AT1 receptor binding assay ([125I]-Sar1-Ile8-Angiotensin II, HEK293/AT1 receptor cell membranes); conditions: similar assay, at 10 μM
From the text: Biological Example 2: AT1 Receptor Binding
The same media, solutions, cell procedures and compound preparation was used as for Biological Example 1 but using HEK293/AT1 Receptor Transient Cells.

Chain of AT2 receptor (P50052 whole entry, species assumed): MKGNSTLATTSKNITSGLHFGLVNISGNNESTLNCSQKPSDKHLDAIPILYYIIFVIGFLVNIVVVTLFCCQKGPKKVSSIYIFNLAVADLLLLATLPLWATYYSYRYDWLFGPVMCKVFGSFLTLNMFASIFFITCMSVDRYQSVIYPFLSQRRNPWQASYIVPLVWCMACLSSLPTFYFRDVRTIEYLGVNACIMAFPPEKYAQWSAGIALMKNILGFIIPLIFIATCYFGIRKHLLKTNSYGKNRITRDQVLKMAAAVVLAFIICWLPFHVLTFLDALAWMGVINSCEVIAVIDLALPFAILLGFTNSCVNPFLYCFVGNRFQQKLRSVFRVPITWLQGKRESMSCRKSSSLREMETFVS
Chain of AT1 receptor (P30556 whole entry, species assumed): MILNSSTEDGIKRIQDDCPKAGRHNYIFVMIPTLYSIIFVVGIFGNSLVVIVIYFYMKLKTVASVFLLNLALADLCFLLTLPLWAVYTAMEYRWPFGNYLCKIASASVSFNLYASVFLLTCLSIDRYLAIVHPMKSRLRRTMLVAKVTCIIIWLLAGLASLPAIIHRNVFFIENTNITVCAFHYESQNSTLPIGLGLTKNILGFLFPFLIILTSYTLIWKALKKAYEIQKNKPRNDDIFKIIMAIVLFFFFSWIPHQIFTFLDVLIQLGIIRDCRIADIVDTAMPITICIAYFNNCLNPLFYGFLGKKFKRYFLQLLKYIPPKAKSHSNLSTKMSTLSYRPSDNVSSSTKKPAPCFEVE

IC50 (AT2 receptor)	Structure (SMILES)	neurite outgrowth (neurite average length) (NG108-15 neurite cells)	AT1 receptor binding (AT1 receptor)
89 nM	CN(CCCc1ccc(F)cc1)[C@H]1C[C@@H](C(N)=O)N(C(=O)C(c2ccccc2)c2ccccc2)C1 [Compound 136, (2S,4S)-1-(2,2-diphenylacetyl)-4-((3-(4-fluorophenyl)propyl)(methyl)amino)pyrrolidine-2-carboxamide]	–	—: No significant inhibition of binding of the radiolabelled ligand even at top concentration tested (10 μM). Compounds 6, 112, 136 and 138 were also analysed in a similar assay and showed no AT1 receptor binding at 10 μM.
461 nM	O=C(O)[C@@H]1C[C@H](c2sccc2-c2ccccc2)CN1C(=O)C(c1ccccc1)c1ccccc1 [Compound 107, (2S,4S)-1-(2,2-diphenylacetyl)-4-(3-phenylthiophen-2-yl)-pyrrolidine-2-carboxylic acid]	–	–

The remaining lines, values behind:

Structure (SMILES)	IC50 (AT2 receptor)	neurite outgrowth (neurite average length) (NG108-15 neurite cells)	AT1 receptor binding (AT1 receptor)
CN(CCCc1ccc(F)cc1)[C@H]1C[C@@H](C#N)N(C(=O)C(c2ccccc2)c2ccccc2)C1 [Compound 137, (2S,4S)-1-(2,2diphenylacetyl)-4-((3-(4-fluorophenyl)propyl)(methyl)amino)pyrrolidine-2-carbonitrile]	173 nM	–	–
O=C(O)C1Cc2c(OCc3ccccc3)cccc2N1C(=O)C(c1ccccc1)c1ccccc1 (stereo not drawn) [Compound 15, 4-(benzyloxy)-1-(2,2-diphenylacetyl)indoline-2-carboxylic acid]	–	inhibited	–
CN(C)S(=O)(=O)NC(=O)[C@@H]1C[C@H](OCCCc2ccccc2)CN1C(=O)C(c1ccccc1)c1ccccc1 [Compound 112, (2S,4S)—N—(N,N-dimethylsulfamoyl)-1-(2,2-diphenylacetyl)-4-(3-phenylpropoxy)pyrrolidine-2-carboxamide]	–	–	—: No significant inhibition of binding of the radiolabelled ligand even at top concentration tested (10 μM). Compounds 6, 112, 136 and 138 were also analysed in a similar assay and showed no AT1 receptor binding at 10 μM.
